Assay results: patent US20110092440A1, “METHOD OF REGULATING CELL GROWTH USING A PROTEASOME INHIBITOR” (THE BOARD OF TRUSTEES OF THE UNIVERSITY OF ILLINOIS, priority 2008, published 2011)
Non-standard residues stand in square brackets, D forms with d. Residues, ends and D or L forms follow the SMILES beside them. *: point of attachment. Nva = CCC[C@H](N)C(=O)O; Cbz = O=C(OCc1ccccc1)*; OtBu = CC(C)(C)O*

What was measured:
FoxM1 protein = assay: Immunoblot analysis of FoxM1 protein levels in tumor cells; assay type: cell-based, human; conditions: U266, RPMI8226, HL-60 and U2OS cells, 24 hours, FIG. 2B
Method: The effects of proteasome inhibitors on FoxM1 protein expression were also examined. U266 and RPMI8226, both multiple myeloma cells, HL-60 leukemia cells and human U2OS osteosarcoma cells were treated with proteasome inhibitors MG115, MG132 and VELCADE® for 24 hours. Cell lysates were harvested and the FoxM1 protein levels were analyzed by immunoblot analysis. […] See also U.S. Patent Application Publication No. 2008/0152618.

[1] = tested on: FoxM1 transcriptional activity; assay: FoxM1-dependent luciferase assay in U2OS-C3-Luc cells; assay type: cell-based, human; conditions: 1 μg/ml doxycycline, 24 hours, FIG. 2A
Method: The effects of proteasome inhibitors on FoxM1 transcriptional activity were tested by examining FoxM1-dependent luciferase activity in a luciferase assay. It was previously reported that thiazole antibiotics inhibited FoxM1-dependent transcriptional activity by measuring the reduction of luciferase activity in a U2OS-derived cell line stably expressing doxycycline-inducible FoxM1 and FoxM1-dependent luciferase (the U2OS-C3-Luc cell line). See U.S. Patent Application Publication No. 2008/0152618; Radhakrishnan et al. 2006; and Bhat et al., 2009. The same cell line was used in this experiment. U2OS-C3-Luc cells were treated with a combination of 1 μg/ml doxycycline and proteasome inhibitors at indicated concentrations for 24 hours, and the luciferase activity was measured. The luciferase activity was determined by using either the Luciferase Assay System (Promega, Madison, Wis.) or the Dual-Luciferase reporter assay system (Promega) according to the manufacturer's instructions.
The results shown in FIG. 2A (1) were normalized by the amount of proteins in the sample; and the results shown in FIG. 2A (2) were normalized using the Dual-luciferase reporter assay system (Promega).

[2] = tested on: U266 and RPMI8226 multiple myeloma, HL-60 leukemia and U2OS osteosarcoma cells; assay: Annexin V-PE/7AAD staining, FACS analysis of apoptosis; assay type: cell-based, human; conditions: U266, RPMI8226, HL-60 and U2OS cells, FIG. 3
Method: Proteasorne inhibitor-induced apoptosis was further quantified by using Annexin V-PE/7AAD staining. U266 and RPMI8226 multiple myeloma, HL-60 leukemia and U2OS osteosarcoma cells were cultured in the presence of proteasome inhibitors MG115, MG132 and VELCADE®. Following proteasome inhibitor treatment (or DMSO in the control), cells were stained with Annexin V-PE/7AAD (BD-Pharmingen, Franklin Lakes, N.J.) and then analyzed by Fluorescence-activated Cell Sorting (FACS). […] The concentrations of proteasome inhibitors used in the experiments shown in FIG. 3 were the same as those in FIG. 2. The percentages of apoptotic cells were shown in the parentheses in FIG. 3. The induction of apoptosis correlated with the suppression of FoxM1 (see FIG. 3 and FIG. 2B).

20S proteasome = target: T1, 20S proteasome (Homo sapiens, UniProt P28074); assay: 20S Proteasome Activity Assay Kit (LLVY-AMC cleavage); assay type: biochemical; conditions: 25 μM, 15 minutes pre-incubation, 1 hour at 37° C., FIG. 1C
T1 construct: Millipore
Method: The effects of Siomycin A and thiostrepton on the 20S proteasome were compared with proteasome inhibitors MG132 and lactacystin using the Proteasome Activity Assay Kit following the manufacturer's instructions (Millipore). […] Proteasome samples were prepared according to the manufacturer's instructions. […] Samples were incubated for 1 hour at 37° C. and the fluorescence derived from the cleaved AMC was detected and quantified using a 380/460 nm filter in a fluorometer (Spectra Max GeminiXS, Molecular Devices, Sunnyvale, Calif.).

[3] = tested on: FoxM1 transcriptional activity; conditions: previously reported (US 2008/0152618; Radhakrishnan et al., 2006); cited from earlier work
[4] = tested on: NF-κB transcriptional activity; assay: TNF-α-induced NF-κB-dependent luciferase assay in 293T-NF-κB-Luc cells; assay type: cell-based; conditions: 10 ng/mL TNF-α 24 hours, then compound 10 hours, FIG. 1B
Method: Proteasome inhibitors were known to inhibit the activity of NF-κB via the stabilization of its negative regulator IκB-α (Nakanishi et al., 2005, Nat Rev Cancer 5:297-309; Nencioni et al., 2007). The effects of Siomycin A and thiostrepton on NF-κB-dependent transcriptional activity were tested. 293T cells stably transfected with an NF-κB-Luc reporter construct (293T-NF-κB-Luc) were induced with 10 ng/mL TNF-αfor 24 hours. The next day, the cells were treated with Siomycin A or thiostrepton for an additional 10 hours, and followed by luciferase assay. The luciferase activity was determined by using the Luciferase Assay System (Promega, Madison, Wis.) according to the manufacturer's instructions. The data were normalized based on the amount of proteins in the samples.

MDAMB231 cells = assay: Apoptosis induction by Siomycin A alone, MDAMB231; assay type: cell-based, human; conditions: data not shown
BxPC3 cells = assay: Apoptosis induction by Siomycin A alone, BxPC3; assay type: cell-based, human; conditions: data not shown
Mia Paca cells = assay: Apoptosis induction by Siomycin A alone, Mia Paca; assay type: cell-based, human; conditions: data not shown
[5] = tested on: Hdm2, p53, Mcl-1 and p21 protein levels in U2OS cells; assay: Immunoblot analysis of Hdm2, p53, Mcl-1 and p21 protein levels in U2OS cells; assay type: cell-based, human; conditions: FIG. 1A
Source text: The effects of Siomycin A on the protein levels of these genes in the cells were compared with those of a proteasome inhibitor MG132.

HPAC cells = assay: Apoptosis induction by Siomycin A alone, HPAC; assay type: cell-based, human; conditions: data not shown
[6] = toxicity studies, Aghajanian et al., 2002; cited from earlier work
[7] = tested on: Prostate cancer DU145 and PC3 cells; assay type: cell-based; conditions: data not shown
U2OS-C3 cells = assay: Active caspase 3 immunoblot in U2OS-C3 cells with doxycycline-induced FoxM1 over-expression; assay type: cell-based, human; conditions: compound 24 hours, FIG. 4
Method: Over-expression of FoxM1 was often observed in a variety of tumors. See Pilarsky et al., 2004, Neoplasia 6(6):744-750; Chan et al., 2008, J Pathol 215(3):245-252. A U2OS-derived cell line stably expressing doxycycline-inducible FoxM1-GFP fusion protein (U2OS-C3) was used to examine the role of FoxM1 in apoptosis induced by proteasome inhibitors. Exogenous FoxM1 expression was induced by doxycycline and the following day the cells were treated with different concentrations of VELCADE® for 24 hours.

SMILES | levels of FoxM1 protein (FoxM1 protein) | FoxM1 transcriptional activity (luciferase) [1] | induction of apoptosis (Annexin V-PE/7AAD) [2] | proteolytic activity of the 20S proteasome (free AMC) (20S proteasome) | also measured
CCC[C@@H](C=O)NC(=O)[C@H](CC(C)C)NC(=O)[C@H](CC(C)C)NC(=O)OCc1ccccc1 [MG115, Z-L-leucyl-L-leucyl-L-norvalinal] (Cbz-Leu-Leu-[Nva]-aldehyde) | the levels of FoxM1 protein decreased | inhibited FoxM1 transcriptional activity | induced apoptosis in the cells | – | –
CC(C)C[C@@H](C=O)NC(=O)[C@H](CC(C)C)NC(=O)[C@H](CC(C)C)NC(=O)OCc1ccccc1 [MG132, Z-L-leucyl-L-leucyl-L-leucinal] (Cbz-Leu-Leu-Leu-aldehyde) | the levels of FoxM1 protein decreased | inhibited FoxM1 transcriptional activity | induced apoptosis in the cells | the decrease was not as prominent as that by MG132 or lactacystin | –
CC[C@H](C)[C@H](NC(=O)OCc1ccccc1)C(=O)N[C@@H](CCC(=O)OC(C)(C)C)C(=O)N[C@@H](C)C(=O)N[C@H](C=O)CC(C)C [PSI, N-benzyloxycarbony-Ile-Glu-(O-t-butyl)-Ala-leucinal] (Cbz-IE(OtBu)AL-aldehyde) | – | inhibited FoxM1 transcriptional activity | – | – | –
C=C(NC(=O)C(=C)NC(=O)c1csc(C2=N[C@@H]3c4csc(n4)[C@H]4NC(=O)c5csc(n5)[C@H]([C@](C)(O)[C@@H](C)O)NC(=O)[C@H]5CSC(=N5)/C(=C/C)NC(=O)[C@H]([C@@H](C)O)NC(=O)c5csc(n5)[C@]3(CC2)NC(=O)[C@H](C)NC(=O)C(=C)NC(=O)C(=C)NC(=O)[C@H](C(C)C)N[C@@H]2C=Cc3c([C@H](C)O)cc(nc3[C@H]2O)C(=O)O[C@@H]4C)n1)C(N)=O [Siomycin A] | – | – | – | decreased proteolytic activity of the 20S proteasome | FoxM1 transcriptional activity and FoxM1 protein expression, reported previously [3]: inhibited FoxM1 transcriptional activity as well as FoxM1 protein expression in cells; TNF-α-induced NF-κB transcriptional activity [4]: suppressed TNF-α-induced NF-κB transcriptional activity; concentration required to induce apoptosis when used alone (MDAMB231 cells): 5 µM; concentration required to induce apoptosis when used alone (BxPC3 cells): 5 µM; concentration required to induce apoptosis when used alone (Mia Paca cells): 5 µM; cellular protein levels of Hdm2, p53, Mcl-1 and p21 [5]: increased the cellular protein levels of Hdm2, p53, Mcl-1 and p21; concentration required to induce apoptosis when used alone (HPAC cells): 10 to 15 µM
CC(C)C[C@H](NC(=O)[C@H](Cc1ccccc1)NC(=O)c1cnccn1)B(O)O [VELCADE®, pyrazylcarbony-phenylalanyl-leucyl-boronate] | the levels of FoxM1 protein decreased | inhibited FoxM1 transcriptional activity | induced apoptosis in the cells | – | therapeutic index [6]: very narrow therapeutic index; minimal concentration required for induction of caspase 3 expression, compound alone [7]: 50 nM; active caspase 3 expression in cells over-expressing FoxM1 (U2OS-C3 cells): VELCADE®-induced active caspase 3 expression was reduced in cells that over-expressed FoxM1
COc1cccc2c1C(=O)c1c(O)c3c(c(O)c1C2=O)C[C@@](O)(C(=O)CO)C[C@@H]3O[C@H]1C[C@H](N)[C@H](O)[C@H](C)O1 [doxorubicin] | – | – | – | – | active caspase 3 expression in cells over-expressing FoxM1 (U2OS-C3 cells): over-expression of FoxM1 did not protect against doxorubicin-induced caspase 3 expression
CC(=O)N[C@@H](CSC(=O)[C@]1([C@@H](O)C(C)C)NC(=O)[C@H](C)[C@@H]1O)C(=O)O [lactacystin] | – | – | – | the decrease was not as prominent as that by MG132 or lactacystin | –
C=C(NC(=O)C(=C)NC(=O)c1csc(C2=N[C@@H]3c4csc(n4)[C@H]4NC(=O)c5csc(n5)[C@H]([C@](C)(O)[C@@H](C)O)NC(=O)[C@H]5CSC(=N5)/C(=C/C)NC(=O)[C@H]([C@@H](C)O)NC(=O)c5csc(n5)[C@]3(CC2)NC(=O)[C@H](C)NC(=O)C(=C)NC(=O)[C@H](C)NC(=O)[C@H]([C@@H](C)CC)N[C@@H]2C=Cc3c([C@H](C)O)cc(nc3[C@H]2O)C(=O)O[C@@H]4C)n1)C(N)=O [thiostrepton] | – | – | – | decreased proteolytic activity of the 20S proteasome | minimal concentration required for induction of caspase 3 expression, compound alone [7]: 3000 nM; FoxM1 transcriptional activity and FoxM1 protein expression, reported previously [3]: inhibited FoxM1 transcriptional activity as well as FoxM1 protein expression in cells; TNF-α-induced NF-κB transcriptional activity [4]: suppressed TNF-α-induced NF-κB transcriptional activity
